Data reported in PubChem BioAssay AID256 (DTP/NCI, 2004).
Several values for one entry are separate records, joined by “and”; a condition that tells them apart may be missing. Equal values may be shown once. Inconclusive results and toxic doses are left out. How the source made its calls: active means survival T/C of 150% or more; inactive means T/C below 125% in these data.

Test system: CD2F1 mice, L1210 leukemia ip, survival T/C
Assay: NCI In Vivo Anticancer Drug Screen. Data for tumor model L1210 Leukemia (intraperitoneal) in CD2F1 (CDF1) mice
Details: higher = longer survival
Summary of the method: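 Mice carrying a transplanted tumor received test compound or vehicle alone. The value is the measurement in the treated group divided by that in the vehicle-treated control group.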

[1] = endpoint: mean survival time, dose: 100.0 mg/kg/injection, schedule: Q01DX009 (ip), vehicle: saline with Tween-80
[2] = endpoint: mean survival time, dose: 100.0 mg/kg/injection, schedule: Q04DX003 (ip), vehicle: saline with Tween-80
[3] = endpoint: mean survival time, dose: 200.0 mg/kg/injection, schedule: Q01DX009 (ip), vehicle: saline with Tween-80
[4] = endpoint: mean survival time, dose: 200.0 mg/kg/injection, schedule: Q04DX003 (ip), vehicle: saline with Tween-80
[5] = endpoint: mean survival time, dose: 400.0 mg/kg/injection, schedule: Q01DX009 (ip), vehicle: saline with Tween-80
[6] = endpoint: mean survival time, dose: 400.0 mg/kg/injection, schedule: Q04DX003 (ip), vehicle: saline with Tween-80

Measured: T/C

[C-]#[O+].[Cl][Sn]([Cl])[Cl].[Cl][Sn]([Cl])[Cl].[Pt].c1cnc2c(c1)ccc1cccnc12
inactive: endpoint: median survival time, dose: 3.12 mg/kg/injection, schedule: Q04DX003 (ip), vehicle: saline with Tween-80 113 % of control | endpoint: median survival time, dose: 6.25 mg/kg/injection, schedule: Q04DX003 (ip), vehicle: saline with Tween-80 109 % of control | endpoint: median survival time, dose: 12.5 mg/kg/injection, schedule: Q04DX003 (ip), vehicle: saline with Tween-80 109 % of control | endpoint: median survival time, dose: 100.0 mg/kg/injection, schedule: Q04DX003 (ip), vehicle: saline with Tween-80 106 % of control

COc1cccc(CN2CCN(N)CC2)c1
inactive: endpoint: mean survival time, dose: 12.5 mg/kg/injection, schedule: Q01DX009 (ip), vehicle: Klucel (hydroxypropylcellulose) (HPC) 98 % of control | endpoint: mean survival time, dose: 25.0 mg/kg/injection, schedule: Q01DX009 (ip), vehicle: Klucel (hydroxypropylcellulose) (HPC) 97 % of control | endpoint: mean survival time, dose: 50.0 mg/kg/injection, schedule: Q01DX009 (ip), vehicle: Klucel (hydroxypropylcellulose) (HPC) 97 % of control | endpoint: mean survival time, dose: 100.0 mg/kg/injection, schedule: Q01DX009 (ip), vehicle: Klucel (hydroxypropylcellulose) (HPC) 92 % of control | endpoint: mean survival time, dose: 200.0 mg/kg/injection, schedule: Q01DX009 (ip), vehicle: Klucel (hydroxypropylcellulose) (HPC) 97 % of control

CCCCOC(=O)CCCC(=O)OCCCC
inactive: [1] 108 % of control | [2] 95 % of control | [3] 104 % of control | [4] 93 % of control | [5] 103 % of control | [6] 95 % of control

CC(=O)Nc1ccccc1OC(=O)OCC(Cl)(Cl)Cl
inactive: [1] 96 % of control | [3] 96 % of control | [5] 101 % of control

CC(C)=NO
inactive: [2] 109 % of control | [4] 90 % of control

O=C1CCN2CCc3c([nH]c4ccccc34)C2C1 (configuration not stated)
inactive: [2] 101 % of control | [4] 101 % of control | [6] 109 % of control

O=C1c2ccccc2C(=O)c2c(O)c(Cc3cccnc3)cc(O)c21
inactive: endpoint: mean survival time, dose: 100.0 mg/kg/injection, schedule: Q01DX009 (ip), vehicle: saline sonified 98 % of control | endpoint: mean survival time, dose: 200.0 mg/kg/injection, schedule: Q01DX009 (ip), vehicle: saline sonified 98 % of control | endpoint: mean survival time, dose: 400.0 mg/kg/injection, schedule: Q01DX009 (ip), vehicle: saline sonified 102 % of control

CCC(C)C#N (configuration not stated)
inactive: endpoint: mean survival time, dose: 5.0 mg/kg/injection, schedule: Q01DX009 (ip), vehicle: saline with Tween-80 98 % of control | endpoint: mean survival time, dose: 5.0 mg/kg/injection, schedule: Q04DX003 (ip), vehicle: saline 97 % of control | endpoint: mean survival time, dose: 10.0 mg/kg/injection, schedule: Q01DX009 (ip), vehicle: saline with Tween-80 100 % of control | endpoint: mean survival time, dose: 10.0 mg/kg/injection, schedule: Q04DX003 (ip), vehicle: saline 103 % of control | endpoint: mean survival time, dose: 20.0 mg/kg/injection, schedule: Q01DX009 (ip), vehicle: saline with Tween-80 94 % of control | endpoint: mean survival time, dose: 20.0 mg/kg/injection, schedule: Q04DX003 (ip), vehicle: saline 103 % of control

NC(=O)c1[nH]nc(C2OC(CO)C(O)C2O)c1O (configuration not stated)
inactive: endpoint: mean survival time, dose: 0.25 mg/kg/injection, schedule: Q04DX003 (ip), vehicle: saline 105 % of control | endpoint: mean survival time, dose: 0.5 mg/kg/injection, schedule: Q04DX003 (ip), vehicle: saline 97 % of control | endpoint: mean survival time, dose: 1.0 mg/kg/injection, schedule: Q04DX003 (ip), vehicle: saline 96 % of control | endpoint: mean survival time, dose: 2.0 mg/kg/injection, schedule: Q04DX003 (ip), vehicle: saline 97 % of control | endpoint: median survival time, dose: 0.25 mg/kg/injection, schedule: Q01DX009 (ip), vehicle: saline 98 % of control | endpoint: median survival time, dose: 0.5 mg/kg/injection, schedule: Q01DX009 (ip), vehicle: saline 111 % of control | endpoint: median survival time, dose: 1.0 mg/kg/injection, schedule: Q01DX009 (ip), vehicle: saline 121 % of control | endpoint: median survival time, dose: 1.0 mg/kg/injection, schedule: Q04DX003 (ip), vehicle: saline 102 % of control | endpoint: median survival time, dose: 1.88 mg/kg/injection, schedule: Q04DX003 (ip), vehicle: saline 117 % of control | endpoint: median survival time, dose: 2.0 mg/kg/injection, schedule: Q01DX009 (ip), vehicle: saline 120 % of control | endpoint: median survival time, dose: 3.75 mg/kg/injection, schedule: Q04DX003 (ip), vehicle: saline 110 % of control | endpoint: median survival time, dose: 4.0 mg/kg/injection, schedule: Q01DX009 (ip), vehicle: saline 110 % of control | endpoint: median survival time, dose: 7.5 mg/kg/injection, schedule: Q04DX003 (ip), vehicle: saline 116 % of control | endpoint: median survival time, dose: 8.0 mg/kg/injection, schedule: Q01DX009 (ip), vehicle: saline 88 % of control | endpoint: median survival time, dose: 8.0 mg/kg/injection, schedule: Q04DX003 (ip), vehicle: saline 117 % of control and 120 % of control | endpoint: median survival time, dose: 15.0 mg/kg/injection, schedule: Q04DX003 (ip), vehicle: saline 118 % of control | endpoint: median survival time, dose: 16.0 mg/kg/injection, schedule: Q01DX009 (ip), vehicle: saline 101 % of control | endpoint: median survival time, dose: 16.0 mg/kg/injection, schedule: Q04DX003 (ip), vehicle: saline 111 % of control | endpoint: median survival time, dose: 30.0 mg/kg/injection, schedule: Q04DX003 (ip), vehicle: saline 97 % of control | endpoint: median survival time, dose: 32.0 mg/kg/injection, schedule: Q04DX003 (ip), vehicle: saline 118 % of control
